The values that follow come from US20110301142A1, “ANTAGONISTS OF LYSOPHOSPHATIDIC ACID RECEPTORS” (priority 2008, published 2011).

For one assay, the target named is T1, human LPA3 (Homo sapiens, UniProt Q9UBY5).
T1 construct: The full-length cDNA fragment for human LPA3 was obtained by PCR from the vector; expressed in transfected cells; cDNA from the Missouri S&T cDNA Resource Center
T1 sequence (Q9UBY5 1-353): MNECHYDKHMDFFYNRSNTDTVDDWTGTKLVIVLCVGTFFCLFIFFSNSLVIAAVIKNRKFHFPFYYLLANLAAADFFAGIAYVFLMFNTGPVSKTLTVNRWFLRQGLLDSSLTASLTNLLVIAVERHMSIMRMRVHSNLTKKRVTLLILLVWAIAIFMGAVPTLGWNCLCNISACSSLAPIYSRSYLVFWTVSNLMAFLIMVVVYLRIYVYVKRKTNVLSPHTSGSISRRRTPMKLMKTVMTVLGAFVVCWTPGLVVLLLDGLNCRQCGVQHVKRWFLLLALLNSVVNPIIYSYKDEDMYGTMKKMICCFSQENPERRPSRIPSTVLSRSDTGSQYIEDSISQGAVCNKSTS
As to the kind of experiment: LPA3 calcium flux assay. Format: cell-based. The settings on record: Human LPA3 expressing CHO cells, stimulated with 10 nM LPA; read-out: HLPA3 Ca Flux IC50. Here is the method: A vector containing the human LPA3 receptor cDNA was obtained from the Missouri S&T cDNA Resource Center (www.cdna.org). The full-length cDNA fragment for human LPA3 was obtained by PCR from the vector. The nucleotide sequence of the cloned human LPA3 was determined by sequencing and confirmed to be identical to the published human LPA3 sequence (NCBI accession number NM 012152). The cDNA was cloned into the pcDNA5/FRT expression plasmid and transfected in CHO cells using lipofectamine 2000 (Invitrogen Corp., USA). Clones stably expressing human LPA3 were selected using hygromycin and identified as cells that show Ca-influx in response to LPA.
(§1) Human LPA1 or LPA3 expressing CHO cells are seeded at 20,000-45,000 cells per well in a 96-well poly-D-lysine coated plate one or two days before the assay. Prior to the assay, the cells are washed once with PBS and then cultured in serum-free media overnight. On the day of the assay, a calcium indicator dye (Calcium 4, Molecular Devices) in assay buffer (HBSS with Ca^2+ and Mg^2+ and containing 20 mM Hepes and 0.3% fatty-acid free human serum albumin) is added to each well and incubation continued for 1 hour at 37° C. 10 μl of test compounds in 2.5% DMSO are added to the cells and incubation continued at room temperature for 30 minutes. Cells are the stimulated by the addition of 10 nM LPA and intracellular Ca^2+ measured using the Flexstation 3 (Molecular Devices). IC50s are determined using Graphpad prism analysis of drug titration curves.

The target of a further assay is T2, human LPA1 (Homo sapiens, UniProt Q92633).
T2 construct: the full-length cDNA for human LPA1 was obtained by PCR of the reverse transcription reaction; expressed in transfected cells
The experiment in a line: LPA1 calcium flux assay (HLPA1 Ca Flux). It counts as cell-based. The settings on record: Human LPA1 expressing CHO cells, stimulated with 10 nM LPA. Here is the method:
A 1.1 kb cDNA encoding the human LPA1 receptor was cloned from human lung. Human lung RNA (Clontech Laboratories, Inc. USA) was reverse transcribed using the RETROscript kit (Ambion, Inc.) and the full-length cDNA for human LPA1 was obtained by PCR of the reverse transcription reaction. The nucleotide sequence of the cloned human LPA1 was determined by sequencing and confirmed to be identical to the published human LPA1 sequence (An et al. Biochem. Biophys. Res. Commun. 231:619 (1997). The cDNA was cloned into the pcDNAS/FRT expression plasmid and transfected in CHO cells using lipofectamine 2000 (Invitrogen Corp., USA). Clones stably expressing human LPA1 were selected using hygromycin and identified as cells that show Ca-influx in response to LPA.
as §1
On the technique in general: A change in cytosolic calcium serves as a functional read-out for many receptors and channels.

Molecules are shown by their SMILES.

T2 sequence (Q92633 whole entry): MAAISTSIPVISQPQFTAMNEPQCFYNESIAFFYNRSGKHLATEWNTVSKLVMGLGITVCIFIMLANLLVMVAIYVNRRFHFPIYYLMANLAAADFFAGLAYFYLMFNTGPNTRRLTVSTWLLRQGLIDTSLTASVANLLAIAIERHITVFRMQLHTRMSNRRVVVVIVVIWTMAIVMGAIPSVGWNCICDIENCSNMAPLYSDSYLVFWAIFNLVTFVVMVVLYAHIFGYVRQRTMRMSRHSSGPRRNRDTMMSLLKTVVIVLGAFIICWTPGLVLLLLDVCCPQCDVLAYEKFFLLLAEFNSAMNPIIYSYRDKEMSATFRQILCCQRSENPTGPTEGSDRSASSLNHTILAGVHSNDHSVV

As a reminder, the IC50 is the midpoint of a concentration-inhibition curve. For `Cc1noc(-c2ccc(-c3ccc(C(=O)O)cc3)cc2)c1NC(=O)OC(C)c1ccccc1Cl` (stereo not shown) [Compound 1-51, 4′-{4-[1-(2-Chloro-phenyl)-ethoxycarbonylamino]-3-methyl-isoxazol-5-yl}-biphenyl-4-carboxylic acid], the IC50 was 1 to 50 µM on human LPA3 and less than 0.3 µM on human LPA1.

For the compound `COC(=O)Cc1cccc(Oc2ccc(-c3onc(C)c3NC(=O)O[C@H](C)c3ccccc3F)cc2)c1` [Compound 1-95, [3-(4-{4-[1-(2-Fluoro-phenyl)-ethoxycarbonylamino]-3-methyl-isoxazol-5-yl}-phenoxy)-phenyl]acetic acid methyl ester], the IC50 on human LPA3 was 1 to 50 µM; on human LPA1, less than 0.3 µM.

Consider `Cc1noc(-c2ccc(-c3ccc(CC(=O)O)cc3)cc2)c1NC(=O)OC(C)c1ccccc1F` (stereo not shown) [Compound 1-26, (4′-{4-[1-(2-Fluoro-phenyl)-ethoxycarbonylamino]-3-methyl-isoxazol-5-yl}-biphenyl-4-yl)-acetic acid], for which the results for the IC50 at human LPA3 and on human LPA1 were 1 to 50 µM and less than 0.3 µM, respectively.

For `Cc1noc(-c2ccc(-c3cccc(CC(=O)O)c3)cc2)c1NC(=O)O[C@H](C)c1ccccc1` [Compound 1-121], the results for the IC50 on human LPA3 and on human LPA1 were greater than 50 µM and less than 0.3 µM, respectively.

`Cc1noc(-c2ccc(-c3ccc(C(O)C(=O)O)cc3)cc2)c1NC(=O)O[C@H](C)c1ccccc1F` (stereo partly drawn) [Compound 1-139, (4′-{4-[(R)-1-(2-Fluoro-phenyl)-ethoxycarbonylamino]-3-methyl-isoxazol-5-yl}-biphenyl-4-yl)-hydroxy-acetic acid]: the results for the 50% inhibitory concentration (IC50) on human LPA3 and at human LPA1 were 1 to 50 µM and less than 0.3 µM, respectively.

For `Cc1noc(-c2ccc(-c3ccc(C(=O)O)cc3)cc2)c1NC(=O)O[C@H](C)c1ccccc1Cl` [Compound 1-133, 4′-{4-[(R)-1-(2-Chloro-phenyl)-ethoxycarbonylamino]-3-methyl-isoxazol-5-yl}-biphenyl-4-carboxylic acid], the IC50 on human LPA3 is 0.3 to 1 µM; on human LPA1, less than 0.3 µM.

Regarding `Cc1noc(-c2ccc(-c3ccc(C(C)C(=O)O)cc3)cc2)c1NC(=O)O[C@H](C)c1ccccc1Cl` (single isomer, unassigned) [Compound 1-128], the results for the IC50 at human LPA3 and at human LPA1 were 1 to 50 µM and less than 0.3 µM, respectively.

Turning to `Cc1noc(-c2ccc(-c3ccc(CC(=O)O)cn3)cc2)c1NC(=O)OC(C)c1ccccc1Cl` (stereo not shown) [Compound 1-61, [6-(4-{4-[1-(2-Chloro-phenyl)-ethoxycarbonylamino]-3-methyl-isoxazol-5-yl}-phenyl)-pyridin-3-yl]-acetic acid], the IC50 on human LPA3 was 1 to 50 µM; on human LPA1, less than 0.3 µM.

For `Cc1noc(-c2ccc(Cc3cccc(CC(=O)O)c3)cc2)c1NC(=O)O[C@H](C)c1ccccc1F` [Compound 1-80, [3-(4-{4-[(R)-1-(2-Fluoro-phenyl)-ethoxycarbonylamino]-3-methyl-isoxazol-5-yl}-benzyl)-phenyl]acetic acid], the figures for the IC50 on human LPA3 and at human LPA1 were 1 to 50 µM and less than 0.3 µM, respectively.

On to `Cc1noc(-c2ccc(-c3nc(C(=O)O)cs3)cc2)c1NC(=O)OC(C)c1ccccc1Cl` (stereo not shown) [Compound 1-93, 2-(4-{4-[1-(2-Chloro-phenyl)-ethoxycarbonylamino]-3-methyl-isoxazol-5-yl}-phenyl)-thiazole-4-carboxylic acid], for which the IC50 was 1 to 50 µM on human LPA3 and less than 0.3 µM at human LPA1.

Regarding `Cc1noc(-c2ccc(-c3cccc(C(=O)O)n3)cc2)c1NC(=O)OC(C)c1ccccc1Cl` (stereo not shown) [Compound 1-53, 6-(4-{4-[1-(2-Chloro-phenyl)-ethoxycarbonylamino]-3-methyl-isoxazol-5-yl}-phenyl)-pyridine-2-carboxylic acid], the results for the IC50 on human LPA3 and at human LPA1 were 1 to 50 µM and less than 0.3 µM, respectively.

As to `Cc1noc(-c2ccc(-c3ccc(CC(=O)O)cc3)nc2)c1NC(=O)OC(C)c1ccccc1F` (stereo not shown) [Compound 1-48], the IC50 is greater than 50 µM on human LPA3 and less than 0.3 µM at human LPA1.

As to `Cc1noc(-c2ccc(-c3ccc(C(=O)O)nc3)cc2)c1NC(=O)OC(C)c1ccccc1Cl` (stereo not shown) [Compound 1-56, 5-(4-{4-[1-(2-Chloro-phenyl)-ethoxycarbonylamino]-3-methyl-isoxazol-5-yl}-phenyl)-pyridine-2-carboxylic acid], the values for the IC50 on human LPA3 and at human LPA1 were 1 to 50 µM and less than 0.3 µM, respectively.

Consider `Cc1noc(-c2cccc(-c3cccc(C(=O)O)c3)c2)c1NC(=O)OC(C)c1ccccc1Cl` (stereo not shown) [Compound 1-31, 3′-{4-[1-(2-Chloro-phenyl)-ethoxycarbonylamino]-3-methyl-isoxazol-5-yl}-biphenyl-3-carboxylic acid], for which the IC50 at human LPA3 and at human LPA1 was 1 to 50 µM throughout.

With `Cc1noc(-c2ccc(-c3cc(C(=O)O)ccn3)cc2)c1NC(=O)OC(C)c1ccccc1Cl` (stereo not shown) [Compound 1-50, 2-(4-{4-[1-(2-Chloro-phenyl)-ethoxycarbonylamino]-3-methyl-isoxazol-5-yl}-phenyl)-isonicotinic acid], the IC50 at human LPA3 is 1 to 50 µM; at human LPA1 it was less than 0.3 µM.

For `Cc1noc(-c2ccc(Oc3cccc(CC(=O)O)c3)cc2)c1NC(=O)O[C@H](C)c1ccccc1Cl` [Compound 1-137, [3-(4-{4-[(R)-1-(2-Chloro-phenyl)-ethoxycarbonylamino]-3-methyl-isoxazol-5-yl}-phenoxy)-phenyl]acetic acid], the IC50 on human LPA3 was 1 to 50 µM; on human LPA1, less than 0.3 µM.

Regarding `Cc1noc(-c2ccc(-c3ccc(CC(=O)O)cc3)c(F)c2)c1NC(=O)O[C@H](C)c1ccccc1Cl` [Compound 1-132, (4′-{4-[(R)-1-(2-Chloro-phenyl)-ethoxycarbonylamino]-3-methyl-isoxazol-5-yl}-2′-fluoro-biphenyl-4-yl)-acetic acid], the IC50 at human LPA3 was 1 to 50 µM; at human LPA1 it was less than 0.3 µM.

Take `Cc1noc(-c2ccc(Cn3cc(C(=O)O)cn3)cc2)c1NC(=O)OC(C)c1ccccc1Cl` (stereo not shown) [Compound 1-9, 1-(4-{4-[1-(2-Chloro-phenyl)-ethoxycarbonylamino]-3-methyl-isoxazol-5-yl}-benzyl)-1H-pyrazole-4-carboxylic acid]: the IC50 at human LPA3 is 1 to 50 µM; on human LPA1, less than 0.3 µM.

In the case of `Cc1noc(-c2ccc(Oc3ccc(CC(=O)O)cc3)cc2)c1NC(=O)O[C@H](C)c1ccccc1F` [Compound 1-84, [4-(4-{4-[(R)-1-(2-Fluoro-phenyl)-ethoxycarbonylamino]-3-methyl-isoxazol-5-yl}-phenoxy)-phenyl]-acetic acid], the IC50 on human LPA3 was 1 to 50 µM; at human LPA1, less than 0.3 µM.

On to `Cc1noc(-c2ccc(Cn3ncc(C(=O)O)c3C(F)(F)F)cc2)c1NC(=O)OC(C)c1ccccc1Cl` (stereo not shown) [Compound 1-4, 1-(4-{4-[1-(2-Chloro-phenyl)-ethoxycarbonylamino]-3-methyl-isoxazol-5-yl}-benzyl)-5-trifluoromethyl-1H-pyrazole-4-carboxylic acid], for which the IC50 on human LPA3 is 1 to 50 µM; at human LPA1 it was less than 0.3 µM.

For `Cc1noc(-c2ccc(-c3ccc(Cc4nn[nH]n4)cc3)cc2)c1NC(=O)O[C@H](C)c1ccccc1F` [Compound 2-4, {3-Methyl-5-[4′-(2H-tetrazol-5-ylmethyl)-biphenyl-4-yl]-isoxazol-4-yl}-carbamic acid (R)-1-(2-fluoro-phenyl)-ethyl ester], the IC50 was 1 to 50 µM at human LPA3 and less than 0.3 µM on human LPA1.

`Cc1noc(-c2ccc(-c3ccc(C(C)C(=O)O)cc3)cc2)c1NC(=O)O[C@H](C)c1ccccc1Cl` (single isomer, unassigned) [Compound 1-127]: the IC50 on human LPA3 is 0.3 to 1 µM; on human LPA1, less than 0.3 µM.

As to `Cc1noc(-c2ccc(-c3cccc(CC(=O)O)c3)cc2)c1NC(=O)OC(C)c1ccccc1Cl` (stereo not shown) [Compound 1-59, (4′-{4-[1-(2-Chloro-phenyl)-ethoxycarbonylamino]-3-methyl-isoxazol-5-yl}-biphenyl-3-yl)-acetic acid], the IC50 at human LPA3 is 1 to 50 µM; on human LPA1, less than 0.3 µM.
